According to US8377909B2, “Use of phytate as agent inhibiting dissolution of crystals of calcium salts for the prevention of osteoporosis” (Universitat de les Illes Balears, priority 2006, dated 2013):

What was measured:
[1] = Dissolution of hydroxyapatite in the presence of phytate at pH 5; type: physicochemical; conditions: 12 and 24 uM phytate present in pH 5 stage; over 24 hours; FIG. 2
Protocol: FIG. 2 is a graph showing the quantity of calcium dissolved on treating hydroxyapatite for a period of 24 hours in the presence of various concentrations of phytate at pH5.
(§1) A homogenous suspension of crystalline calcium phosphate in the form of hydroxyapatite in TRIS buffer at pH 7.4 was prepared. This suspension was stirred for 8 hours. Then the crystals obtained were filtered and dried to constant weight. Then these crystals were resuspended at pH 5.0 (in acetate buffer) and the kinetics of dissolution of the salt was determined over 24 hours, continuously stirring the system. The kinetics were followed by determining the quantity of dissolved calcium and phosphorus by atomic emission spectroscopy (using inductively coupled plasma).
This experiment was repeated using concentrations of 12 and 24 uM of phytate in the pH 5 stage with the aim of studying the inhibitory effect of dissolution by phytate present in the solution.

[2] = Dissolution of hydroxyapatite previously treated with phytate at pH 7.4; type: physicochemical; conditions: 1, 6 and 12 uM phytate fixed at pH 7.4 stage; dissolution at pH 5.0 acetate buffer over 24 hours; FIG. 1
Protocol: FIG. 1 is a graph showing the quantity of calcium dissolved on treating hydroxyapatite, which has been previously treated with various concentrations of phytate at pH 7.4, for a period of 24 hours.
as §1
This experiment was repeated using concentrations of 1, 6 and 12 uM of phytate during the stage at pH 7.4 with the aim of fixing this compound on the hydroxyapatite structure.

[3] = Effect of phytate consumption on bone mass, axial densitometry; type: in vivo; conditions: overall conclusion of the densitometry study
Protocol: A study was carried out evaluating the effect of phytate consumption on the level of bone mass measured by axial densitometry and peripheral heel densitometry. In total, 433 axial densitometer measurements and 1473 peripheral heel densitometer measurements were made. The consumption of phytate by all subjects was evaluated by using a dietetic questionnaire. Subjects were classified into 4 groups (group 1, group 2, group 3 and group 4) according to increasing levels of phytate consumption.

[4] = Adsorption of phytate on hydroxyapatite crystals; type: physicochemical; conditions: TRIS buffer pH 7.4, stirred 8 hours
Protocol: Three homogenous suspensions of crystallised calcium phosphate in the form of hydroxyapatite in TRIS buffer at pH 7.4 were prepared. These suspensions were stirred for 8 hours in the presence of 1, 3 and 12 uM of phytate, respectively. Later, the suspensions were filtered and the amount of phytate adsorbed on the hydroxyapatite crystals was determined by difference between the initial and final phytate in the solution at pH 7.4.

phytate present in the solution remained fixed to the calcium phosphate structure (hydroxyapatite) ([4]; 1 uM phytate): 62%
phytate present in the solution remained fixed to the calcium phosphate structure (hydroxyapatite) ([4]; 3 uM phytate): 66%
phytate present in the solution remained fixed to the calcium phosphate structure (hydroxyapatite) ([4]; 12 uM phytate): 56%
Compound: O=P(O)(O)O[C@H]1[C@H](OP(=O)(O)O)[C@@H](OP(=O)(O)O)[C@H](OP(=O)(O)O)[C@@H](OP(=O)(O)O)[C@H]1OP(=O)(O)O [phytate, myo-inositol hexaphosphate]
inhibition of dissolution of hydroxyapatite (dissolved calcium) [1]: capable of inhibiting the dissolution of the salt
inhibition of dissolution of hydroxyapatite (dissolved calcium) [2]: capable of inhibiting the dissolution of the salt
effect of consumption of a diet rich in phytate on bone mass [3]: higher bone mass
